Assay results from US20260345601A1, “FORMS OF CARBAMATE DERIVATIVES AND RELATED USES” (NodThera Limited, priority 2022, published 2026).
≈ marks a conversion by molar mass, not a printed value. Entries after “also recorded” stand apart in the source; their conditions may differ. Blank lines part the entries; values can stand above or below the compound they belong to.

Columns and labels:
[1] = system: NLRP3 inflammasome; conditions: reported in literature; cited from earlier work
[2] = Solubility in single solvents, Form 2 as starting material (Table D); format: physicochemical; conditions: 20-25 °C
Description: Solubility of Form 1 was measured in several single solvents using Form 2 as starting material, respectively. […] Thus, MeOH, Acetone, MEK, EtOAc and IPAc were selected for further chemical stability evaluation before starting solubility test with anti-solvents.

[3] = Storage at 25 °C/97% RH and 40 °C/75% RH; format: physicochemical
Description: Chemical Purity Determination by High-Performance Liquid Chromatography (HPLC)
Purity analysis was performed on an Agilent HP1100/Infinity II 1260 series system equipped with a diode array detector and using OpenLAB software. The full method details are provided below:
Unless stated within the appropriate data tables, all HPLC purity data reported has been run using the HPLC Method No. 2.

[4] = Gravimetric vapour sorption (GVS); format: physicochemical; conditions: for GVS hygroscopicity / GVS hysteresis / GVS water uptake: 25 °C; for XRPD post GVS: form after GVS experiment
Description: Gravimetric Vapour Sorption (GVS)
Sorption isotherms were obtained using a SMS DVS Intrinsic moisture sorption analyser, controlled by DVS Intrinsic Control software. The sample temperature was maintained at 25 °C by the instrument controls. The humidity was controlled by mixing streams of dry and wet nitrogen, with a total flow rate of 200 ml/min. The relative humidity was measured by a calibrated Rotronic probe (dynamic range of 1.0-100% RH), located near the sample. The weight change, (mass relaxation) of the sample as a function of % RH was constantly monitored by a microbalance (accuracy±0.005 mg).
Typically, 5-30 mg of sample was placed in a tared mesh stainless steel basket under ambient conditions. The sample was loaded and unloaded at 40% RH and 25 °C (typical room conditions). A moisture sorption isotherm was performed as outlined below (2 scans per complete cycle). The standard isotherm was performed at 25 °C at 10% RH intervals over a 0-90% RH range. Typically, a double cycle (4 scans) was carried out. Data analysis was carried out within Microsoft Excel using the DVS Analysis Suite.
The sample was recovered after completion of the isotherm and re-analysed by XRPD.

[5] = TGA (thermo-gravimetric analysis)/thermal analysis; format: physicochemical; conditions: for TGA weight loss before degradation: heated at 10 °C/min, nitrogen purge
Description: Thermo-Gravimetric Analysis (TGA)
TA Instruments Q500: TGA data were collected on a TA Instruments Q500 TGA, equipped with a 16 position auto-sampler. Typically, 5-10 mg of each sample was loaded onto a pre-tared aluminium DSC pan and heated at 10 °C/min from ambient temperature to 350 °C. A nitrogen purge at 60 ml/min was maintained over the sample. The instrument control software was Advantage for Q Series and Thermal Advantage and the data were analysed using Universal Analysis or TRIOS.

[6] = Drying stability test (Table I); format: physicochemical; conditions: 50 °C under vacuum
[7] = Solubility in aqueous and biorelevant media (Table A); format: physicochemical
From the text: Form 1 was characterized using a wide range of techniques to investigate the solid form and chemical properties (FIGS. 1-6B).

[8] = Solubility of Form 1 in IPAc/Heptane system (Table E); format: physicochemical
Description: Solubility of Form 1 was further measured in IPAc/Heptane system with different ratio at 0-50 °C.

[9] = Chemical stability evaluation in solvents (Table F); format: physicochemical
Description: Chemical stability of this compound was evaluated in MeOH, Acetone, MEK, EtOAc, and IPAc at different temperature points.

SMILES: CNCCC(Oc1ccc(C(F)(F)F)cc1)c1ccccc1 (stereo not drawn) [fluoxetine]
Effect on NLRP3 activation [1]: impair NLRP3 activation

SMILES: OC(CNCC(O)C1CCc2cc(F)ccc2O1)C1CCc2cc(F)ccc2O1 (stereo not drawn) [nebivolol]
Effect on NLRP3 activation [1]: impair NLRP3 activation

SMILES: OC[C@H]1O[C@@H](c2ccc(Cl)c(Cc3ccc(O[C@H]4CCOC4)cc3)c2)[C@H](O)[C@@H](O)[C@@H]1O [epigliflozin]
Effect on NLRP3 activation [1]: impair NLRP3 activation

Form conversion after slurry (XRPD) ([2]; all selected solvents except water): converted to Form 1 | Form after slurry (XRPD) ([2]; H2O, starting material Form 2): Form 2 | Solubility ([2]; H2O, starting material Form 2, XRPD Form 2): 1000 µg/mL (≈ 2.44 mM) | Storage: solid form ([3]; 25 °C/97% RH): Crystalline - Form 2 | Stability at elevated storage ([3]; 25 °C/97% RH and 40 °C/75% RH for 1 week): stable | Storage: solid form ([3]; 40 °C/75% RH): Crystalline - Form 2 | Stability of solid form at elevated conditions ([3]; elevated conditions): stable at elevated conditions | GVS hygroscopicity [4]: Non-hygroscopic | GVS hysteresis [4]: no hysteresis | GVS water uptake ([4]; 0-90% RH): ~0.15% reversible uptake from 0-90% RH | GVS water uptake ([4]; 40-90% RH): 0.09% | TGA weight loss before degradation [5]: No weight loss before degradation
SMILES: CC(C)OC(=O)[C@@H](Cc1ncccn1)OC(=O)Nc1c2c(cc3c1CCC3)CCC2 [Form 2, propan-2-yl(2R)-2-{[(1,2,3,5,6,7-hexahydro-s-indacen-4-yl)carbamoyl]oxy}-3-(pyrimidin-2-yl) propanoate]
XRPD post GVS [4]: remained Form 2; also recorded: Crystalline - Form 2

SMILES: C=C1C(=O)O[C@H]2[C@H]1CC/C(C)=C/CC[C@@]1(C)O[C@@H]21 [parthenolide]
Effect on NLRP3 activation [1]: impair NLRP3 activation

SMILES: O=c1c(O)c(-c2ccc(O)c(O)c2)oc2cc(O)cc(O)c12 [quercetin]
Effect on NLRP3 activation [1]: suppress NLRP3 activation

Solubility ([2]; Acetone, starting material Form 2, XRPD Form 1): 167000 µg/mL (≈ 408 mM) | Solubility ([2]; EtOAc, starting material Form 2, XRPD Form 1): 98000 µg/mL (≈ 239 mM) | Solubility in words ([2]; EtOH and IPA): moderate solubility | Solubility ([2]; EtOH, starting material Form 2, XRPD Form 1): 45000 µg/mL (≈ 110 mM) | Solubility ([2]; IPA, starting material Form 2, XRPD Form 1): 24000 µg/mL (≈ 58.6 mM) | Solubility ([2]; IPAc, starting material Form 2, XRPD Form 1): 48000 µg/mL (≈ 117 mM) | Solubility ([2]; MEK, starting material Form 2, XRPD Form 1): 175000 µg/mL (≈ 427 mM) | Solubility ([2]; MeOH, starting material Form 2, XRPD Form 1): 77000 µg/mL (≈ 188 mM) | Solubility in words ([2]; MeOH, Acetone, MEK, EtOAc and IPAc): good solubility | Solubility in words ([2]; n-heptane and water): poor solubility | Solubility ([2]; n-heptane, starting material Form 2, XRPD Form 1): 3000 µg/mL (≈ 7.33 mM) | Drying stability: XRPD ([6]; 0 h): Form 1 | Drying stability: purity ([6]; 0 h): 99.0% | Drying stability: XRPD ([6]; 22 h): Form 1 | Drying stability: purity ([6]; 22 h): 99.1% | Drying stability: XRPD ([6]; 70 h): Form 1 | Drying stability: purity ([6]; 70 h): 99.1% | Drying stability in words ([6]; total 70 h): no degradation and form change | Storage: solid form ([3]; 25 °C/97% RH): Form 1 | Storage: solid form ([3]; 40 °C/75% RH): Form 1 | GVS hygroscopicity [4]: Non-hygroscopic | GVS hysteresis [4]: no hysteresis | GVS water uptake ([4]; 0-90% RH): <0.1% water uptake between 0-90% RH | GVS water uptake ([4]; 40-90% RH): < 0.1% | XRPD post GVS [4]: remained as Form 1 | Solubility ([7]; fassif): 26 µg/mL (≈ 0.0635 mM) | Solubility ([7]; fessif): 14 µg/mL (≈ 0.0342 mM) | Solubility ([7]; pH = 1.2): < 10 µg/mL | Solubility ([7]; pH = 5): < 10 µg/mL | Solubility ([7]; pH = 6.5): < 10 µg/mL | Solubility ([7]; pH = 7.4): < 10 µg/mL | Solubility ([7]; pH = 8.5): < 10 µg/mL | Solubility ([7]; sgf): 4.7 µg/mL (≈ 0.0115 mM) | Thermal stability by thermal analysis [5]: thermally stable | TGA weight loss before degradation [5]: no weight loss before degradation | Solubility ([8]; IPAc/Heptane 1/0 (v/v), 30 °C): 59500 µg/mL (≈ 145 mM) | Solubility ([8]; IPAc/Heptane 1/0 (v/v), 40 °C): 80200 µg/mL (≈ 196 mM) | Solubility ([8]; IPAc/Heptane 1/0 (v/v), 50 °C): 170600 µg/mL (≈ 417 mM) | Solubility ([8]; IPAc/Heptane 1/1 (v/v), 0-5 °C): 6400 µg/mL (≈ 15.6 mM) | Solubility ([8]; IPAc/Heptane 1/1 (v/v), 30 °C): 12100 µg/mL (≈ 29.5 mM) | Solubility ([8]; IPAc/Heptane 1/1 (v/v), 50 °C): 34400 µg/mL (≈ 84 mM) | Solubility ([8]; IPAc/Heptane 1/2 (v/v), 0-5 °C): 3400 µg/mL (≈ 8.3 mM) | Solubility ([8]; IPAc/Heptane 1/2 (v/v), 30 °C): 4800 µg/mL (≈ 11.7 mM) | Solubility ([8]; IPAc/Heptane 1/2 (v/v), 50 °C): 18000 µg/mL (≈ 44 mM) | Solubility ([8]; IPAc/Heptane 1/3 (v/v), 0-5 °C): 1700 µg/mL (≈ 4.15 mM) | Solubility ([8]; IPAc/Heptane 1/3 (v/v), 30 °C): 2900 µg/mL (≈ 7.08 mM) | Solubility ([8]; IPAc/Heptane 1/3 (v/v), 50 °C): 8000 µg/mL (≈ 19.5 mM) | Solubility ([8]; IPAc/Heptane 2/1 (v/v), 30 °C): 27700 µg/mL (≈ 67.6 mM) | Solubility ([8]; IPAc/Heptane 2/1 (v/v), 50 °C): 53400 µg/mL (≈ 130 mM) | Solubility ([8]; IPAc/Heptane 3/1 (v/v), 50 °C): 65200 µg/mL (≈ 159 mM) | Solubility ([8]; IPAc/Heptane 4/1 (v/v), 50 °C): 75200 µg/mL (≈ 184 mM) | Solubility ([8]; IPAc/Heptane 9/1 (v/v), 50 °C): 120000 µg/mL (≈ 293 mM) | XRPD form in solubility test ([8]; IPAc/Heptane, 0-50 °C, starting material Form 1): Form 1
SMILES: CC(C)OC(=O)[C@@H](Cc1ncccn1)OC(=O)Nc1c2c(cc3c1CCC3)CCC2 [Form 1, propan-2-yl(2R)-2-{[(1,2,3,5,6,7-hexahydro-s-indacen-4-yl)carbamoyl]oxy}-3-(pyrimidin-2-yl) propanoate]
Stability at elevated temperatures ([6]; total 70 h): chemically and physically stable at elevated temperatures

Chemical stability in words ([9]; Acetone and EtOAc, 23 h): slight degradation | Chemical stability: purity ([9]; Acetone, 40 °C, 0 h): 99.57% | Chemical stability: purity ([9]; Acetone, 40 °C, 5-6 h): 99.55% | Chemical stability: purity ([9]; Acetone, 40 °C, 23-24 h): 98.06% | Chemical stability: purity ([9]; EtOAc, 40 °C, 0 h): 99.49% | Chemical stability: purity ([9]; EtOAc, 40 °C, 5-6 h): 99.46% | Chemical stability: purity ([9]; EtOAc, 40 °C, 23-24 h): 99.46% | Chemical stability: purity ([9]; EtOAc, 50 °C, 0 h): 99.43% | Chemical stability: purity ([9]; EtOAc, 50 °C, 5-6 h): 99.31% | Chemical stability: purity ([9]; EtOAc, 50 °C, 23-24 h): 99.27% | Chemical stability: purity ([9]; IPAc, 50 °C, 0 h): 99.70% | Chemical stability: purity ([9]; IPAc, 50 °C, 5 h): 99.73% | Chemical stability in words ([9]; IPAc, 50 °C, 24 h): chemical stable | Chemical stability: purity ([9]; IPAc, 50 °C, 24 h): 99.76% | Chemical stability: purity ([9]; MEK, 40 °C, 0 h): 99.52% | Chemical stability: purity ([9]; MEK, 40 °C, 5-6 h): 99.51% | Chemical stability: purity ([9]; MEK, 40 °C, 23-24 h): 93.28% | Chemical stability: purity ([9]; MEK, 50 °C, 0 h): 99.38% | Chemical stability: purity ([9]; MEK, 50 °C, 5-6 h): 92.75% | Chemical stability: purity ([9]; MEK, 50 °C, 23-24 h): 87.20% | Chemical stability in words ([9]; MeOH and MEK, 23 h): serious degradation | Chemical stability: purity ([9]; MeOH, 50 °C, 0 h): 99.12% | Chemical stability: purity ([9]; MeOH, 50 °C, 5-6 h): 98.03% | Chemical stability: purity ([9]; MeOH, 50 °C, 23-24 h): 90.58%
SMILES: CC(C)OC(=O)[C@@H](Cc1ncccn1)OC(=O)Nc1c2c(cc3c1CCC3)CCC2 [Compound A, propan-2-yl(2R)-2-{[(1,2,3,5,6,7-hexahydro-s-indacen-4-yl)carbamoyl]oxy}-3-(pyrimidin-2-yl) propanoate]

SMILES: COc1ccc(Cl)cc1C(=O)NCCc1ccc(S(=O)(=O)NC(=O)NC2CCCCC2)cc1 [Glyburide]
Concentration of NLRP3 inhibition in words [1]: micromolar concentrations | Effect on NLRP3 activation [1]: specific inhibitor of NLRP3 activation

SMILES: O=[N+]([O-])C=Cc1ccc2c(c1)OCO2 [3,4-methylenedioxy-β-nitrostyrene]
Effect on NLRP3 activation [1]: impair NLRP3 activation

SMILES: Cc1ccc(S(=O)(=O)/C=C/C#N)cc1 [Bay 11-7082]
Effect on NLRP3 activation [1]: impair NLRP3 activation

SMILES: NC[C@@H]1O[C@H](c2ccccc2)Cc2c1ccc(O)c2O [Form A-68930]
Effect on NLRP3 activation [1]: impair NLRP3 activation

SMILES: C[S+]([O-])CCCCN=C=S (stereo not drawn) [sulforaphane]
Effect on NLRP3 activation [1]: suppress NLRP3 activation
